For one series, the target named is hERG (Homo sapiens (Human), UniProt Q12809). The series can be described thus: hERG inhibition, whole-cell patch clamp. In kind it is cell-based. The conditions noted are these: HEK293 cells stably transfected with hERG, tail current at -50 mV. On the technique in general: The hERG channel carries a current that helps repolarise heart muscle cells.
Series [1] deals with CYP1A2, CYP2C9, CYP2C19, CYP3A4, CYP2D6. The series can be described thus: Cyp inhibition in human liver microsomes (all isozymes). The class given is in vitro ADME. As to the method: For Cyp inhibition, human liver microsomes from BD Gentest were incubated with Compound 028 or Compound 032 (10, 3.33, 1.11, 0.37, 0.12, 0.04, 0.01 μM) and substrate (CYP1A2: Phenacetin at 30 μM; CYP2C9: Diclofenac at 10 μM; CYP2C19: S-Mephenytoin at 35 μM; CYP3A4: Midazolam at 5 μM and Testosterone at 80 μM; CYP2D6: Bufuralol at 10 μM) for the following incubation times: CYP1A2, 2C9, 2D6: 10 minutes, 37° C.; CYP2C19: 45 minutes, 37° C.; CYP3A4: 5 minutes, 37° C. Substrate conversion was measured by liquid chromatography/mass spectrometry/mass spectrometry (LC/MS/MS). Inhibition was calculated by curve fitting in Graph Pad Prism.

A short description of series [2]: Rat cassette dosing pharmacokinetics (IV and PO). Particulars: male SD rats, plasma. The class given is in vivo.
The target of another series is HDAC1 (Homo sapiens (Human), UniProt Q13547). The series can be described thus: HDAC enzyme assay. The class given is biochemical. The conditions noted are these: 10 min preincubation, 16 μM substrate.

Molecules are shown by their SMILES. A value given as a limit tells only on which side of the number the result lay.

hERG, sequence (Q12809 whole entry): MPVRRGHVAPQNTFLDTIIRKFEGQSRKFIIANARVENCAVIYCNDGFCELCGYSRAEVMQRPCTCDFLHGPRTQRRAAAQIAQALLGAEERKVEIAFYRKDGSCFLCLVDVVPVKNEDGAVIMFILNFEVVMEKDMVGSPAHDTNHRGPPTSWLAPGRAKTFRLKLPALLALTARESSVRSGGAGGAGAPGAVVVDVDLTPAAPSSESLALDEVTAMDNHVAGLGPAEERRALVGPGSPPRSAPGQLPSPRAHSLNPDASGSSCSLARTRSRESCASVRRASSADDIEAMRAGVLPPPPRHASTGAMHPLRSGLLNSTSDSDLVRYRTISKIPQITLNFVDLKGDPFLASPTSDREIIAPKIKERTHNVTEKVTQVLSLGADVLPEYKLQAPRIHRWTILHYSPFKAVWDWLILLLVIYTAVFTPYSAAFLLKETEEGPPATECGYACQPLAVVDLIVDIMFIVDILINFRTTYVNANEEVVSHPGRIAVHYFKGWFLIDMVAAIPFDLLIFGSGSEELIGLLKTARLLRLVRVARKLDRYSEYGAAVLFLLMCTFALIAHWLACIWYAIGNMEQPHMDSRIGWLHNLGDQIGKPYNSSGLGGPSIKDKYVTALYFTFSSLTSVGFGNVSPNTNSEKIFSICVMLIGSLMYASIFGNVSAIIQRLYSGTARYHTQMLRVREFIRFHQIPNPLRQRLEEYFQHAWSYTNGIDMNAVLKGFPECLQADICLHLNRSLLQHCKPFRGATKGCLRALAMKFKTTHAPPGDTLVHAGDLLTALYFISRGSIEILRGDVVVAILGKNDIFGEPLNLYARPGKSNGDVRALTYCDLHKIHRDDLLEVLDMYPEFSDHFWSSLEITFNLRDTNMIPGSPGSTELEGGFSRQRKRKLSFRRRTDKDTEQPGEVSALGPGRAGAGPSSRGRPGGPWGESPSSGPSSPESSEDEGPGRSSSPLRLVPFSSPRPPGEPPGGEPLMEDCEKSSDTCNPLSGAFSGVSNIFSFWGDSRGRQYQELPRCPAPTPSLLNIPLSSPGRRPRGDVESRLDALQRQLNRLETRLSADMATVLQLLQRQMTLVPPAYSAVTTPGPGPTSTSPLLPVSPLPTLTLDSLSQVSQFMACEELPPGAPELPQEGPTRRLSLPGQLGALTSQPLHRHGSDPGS
HDAC1, sequence (Q13547 whole entry): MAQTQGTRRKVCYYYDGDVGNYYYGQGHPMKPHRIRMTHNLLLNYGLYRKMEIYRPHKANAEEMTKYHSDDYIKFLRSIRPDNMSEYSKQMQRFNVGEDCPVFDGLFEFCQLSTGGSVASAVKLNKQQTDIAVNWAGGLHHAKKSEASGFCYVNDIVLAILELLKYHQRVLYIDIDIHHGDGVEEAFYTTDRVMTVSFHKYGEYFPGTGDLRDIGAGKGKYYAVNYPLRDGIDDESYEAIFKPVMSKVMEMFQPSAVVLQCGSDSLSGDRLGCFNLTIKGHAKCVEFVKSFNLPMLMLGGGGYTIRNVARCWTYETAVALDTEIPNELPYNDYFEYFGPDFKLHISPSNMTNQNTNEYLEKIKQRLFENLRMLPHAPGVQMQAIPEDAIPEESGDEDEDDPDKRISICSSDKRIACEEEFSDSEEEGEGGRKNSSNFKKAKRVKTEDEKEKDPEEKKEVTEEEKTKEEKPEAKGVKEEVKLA
Method for hERG: For hERG inhibition assays, the cells used were HEK293 cells stably transfected with hERG (cell line obtained from Cytocentrics Inc. 3463 Magic Drive San Antonio, Tex. 78229). Composition of External Solution: NaCl, 137 mM; KCl, 4 mM; MgCl2, 1.0 mM; CaCl2, 1.8 mM; HEPES 10 mM; Dextrose 11 mM; Adjusted to a pH of 7.4 with NaOH. Composition of Internal Solution: KCl, 130.0 mM; MgCl2, 1.0 mM; HEPES, 5.0 mM; EGTA, 5.0 mM; NaCl 7.0 mM. Adjusted to a pH of 7.2 using KOH. Test Concentrations: 0.1, 1, 10, 100 μM. Vehicle: DMSO. Experiments were performed at 34+/−1° C. Current was recorded using the whole-cell patch clamp technique on the Cytopatch automated platform. hERG current was elicited with the following voltage protocol: hERG current amplitude was measured as the peak current at −50 mV (tail current). […] Each cell served as its own control. Data are presented as the IC50 calculated by non-linear regression analysis.

In general, IC50 refers to the point on the concentration scale where inhibition reaches its midpoint. In general, AUC refers to concentration integrated over time. High values mean more exposure, low ones less exposure. In general, Cmax refers to the maximum level reached in the sampled fluid or tissue. As to `CN1CCN(c2ncc(C(=O)Nc3cc(-c4cccs4)ccc3N)s2)CC1` [Compound 030], at hERG, the 50% inhibitory concentration (IC50) stood at 70 µM. The molecule further came in with a half-inhibitory concentration (IC50) in series [1] of over 10 µM. In series [2] (PO 5 mg/kg), the AUC came to 15300 ng·h/mL and the highest level (Cmax) was 944 ng/mL. For the same molecule, the half-life in series [2] (PO 5 mg/kg, read-out: PO T1/2 (converted)) is 12.8 h. Moreover, in series [2] (5 mg/kg, oral AUC to IV AUC, dose adjusted), the bioavailability amounted to 170%.

In turn, `Nc1ccc(-c2ccccc2)cc1NC(=O)c1ncc(N2CCNCC2)s1` [Compound 049] displayed a 50% inhibitory concentration (IC50) against HDAC1 of under 0.01 µM.

For the origin of these results see patent publication US10774056B2, “Substituted piperazines as selective HDAC1,2 inhibitors” (REGENACY PHARMACEUTICALS, LLC, priority 2016, dated 2020).
